This note sets out measurements from patent US20120238623A1, “Inflammation and Autoimmune Disorder Treatment using RARa Selective Agonists” (priority 2011, published 2012).

One assay deals with T1, RARα (Homo sapiens, UniProt P10276).
T1 sequence (P10276 1-462): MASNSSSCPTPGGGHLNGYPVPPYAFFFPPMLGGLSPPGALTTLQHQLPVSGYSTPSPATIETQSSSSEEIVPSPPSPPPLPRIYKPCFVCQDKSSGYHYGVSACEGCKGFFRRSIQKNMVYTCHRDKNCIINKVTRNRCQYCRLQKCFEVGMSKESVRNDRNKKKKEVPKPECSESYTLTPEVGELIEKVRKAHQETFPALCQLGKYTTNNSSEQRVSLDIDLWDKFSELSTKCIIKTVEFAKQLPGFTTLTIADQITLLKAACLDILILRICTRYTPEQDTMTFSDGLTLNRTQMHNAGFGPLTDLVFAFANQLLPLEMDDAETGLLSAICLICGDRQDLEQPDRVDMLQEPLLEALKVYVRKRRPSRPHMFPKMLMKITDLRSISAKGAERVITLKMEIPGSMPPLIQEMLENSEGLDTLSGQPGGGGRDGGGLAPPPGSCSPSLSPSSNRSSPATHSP
Briefly: displacement assay to measure agonist binding affinity. The note with it: read-out: Binding Affinities for RARα.

The target in a further assay is T2, RARβ (Homo sapiens, UniProt P10826).
T2 sequence (P10826 1-455): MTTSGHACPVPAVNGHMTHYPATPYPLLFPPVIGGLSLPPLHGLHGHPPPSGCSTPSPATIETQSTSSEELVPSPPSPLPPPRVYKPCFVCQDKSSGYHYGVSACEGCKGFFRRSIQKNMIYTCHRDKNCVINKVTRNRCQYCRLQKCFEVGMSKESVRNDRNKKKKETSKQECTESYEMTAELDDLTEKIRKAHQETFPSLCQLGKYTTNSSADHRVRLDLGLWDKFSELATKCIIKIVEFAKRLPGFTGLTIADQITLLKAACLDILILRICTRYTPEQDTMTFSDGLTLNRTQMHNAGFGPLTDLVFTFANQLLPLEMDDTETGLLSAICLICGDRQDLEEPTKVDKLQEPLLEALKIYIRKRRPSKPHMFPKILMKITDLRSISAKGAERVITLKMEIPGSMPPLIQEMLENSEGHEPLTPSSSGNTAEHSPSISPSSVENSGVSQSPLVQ
The assay is described as above. As to conditions: read-out: Binding Affinities for RARβ.

For another assay, the target named is T3, RARγ (Homo sapiens, UniProt P13631).
T3 sequence (P13631 1-454): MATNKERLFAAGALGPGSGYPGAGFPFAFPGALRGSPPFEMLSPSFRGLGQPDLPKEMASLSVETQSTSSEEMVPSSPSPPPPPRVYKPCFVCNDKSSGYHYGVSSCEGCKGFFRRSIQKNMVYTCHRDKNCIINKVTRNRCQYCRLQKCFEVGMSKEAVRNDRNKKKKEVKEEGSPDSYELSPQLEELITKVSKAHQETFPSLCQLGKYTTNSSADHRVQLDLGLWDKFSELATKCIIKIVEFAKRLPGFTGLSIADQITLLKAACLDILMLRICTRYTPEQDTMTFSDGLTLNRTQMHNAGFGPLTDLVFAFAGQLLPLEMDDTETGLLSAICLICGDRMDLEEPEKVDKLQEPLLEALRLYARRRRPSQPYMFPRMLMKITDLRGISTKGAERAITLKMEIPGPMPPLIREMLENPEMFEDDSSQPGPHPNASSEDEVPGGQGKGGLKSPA
The description is as above. As to conditions: read-out: Binding Affinities for RARγ.

The test system of a further assay is RARα, RARβ, and RARγ. The assay is described as follows: transactivation assay to measure agonist activity. The note with it: FIG. 2. In kind it is cell-based. From the text:
Other RARα selective agonists useful as a compound disclosed herein are described in, e.g., Teng, et al., Aryl or Heteroaryl Amides of Tetrahydronaphthalene, Chroman, Thiochroman and 1,2,3,4-Tetrahydroquinoline Carboxylic Acids, Having an Electron Withdrawing Substituent in the Aromatic Or Heteroaromatic Moiety, Having Retinoid-Like Biological Activity, U.S. Pat. No. 5,856,490; Teng, et al., Methods of Treatment with Compounds Having RARα Receptor Specific or Selective Activity, U.S. Pat. No. 5,965,606; and Nehma, et al., Treatment of Tumors with RARα Selective Retinoid Compounds in Combination with Other Anti-Tumor Agents, U.S. Pat. No. 6,387,950; each of which is incorporated by reference in its entirety. […] Assays by which a compound can be tested and established whether or not it is an RARα selective agonist, are known in the art and are described in numerous prior art publications and patents.

The subject of assay [1] is Naive CD4+ CD25− FoxP3− cells. The assay is described as follows: Treg cell differentiation (FoxP3-GFP expression by flow cytometry) in vitro. As to conditions: αCD3, IL-2 and TGF-β. In kind it is cell-based, mouse. The method, then:
Purified CD4+ CD25^− FoxP3^− cells were cultured in media with the specified concentration of each RAR agonist and analyzed by flow cytometry for FoxP3 (A), α4β7 (B), and CCR9 (C) expression in total CD4 T cells. FoxP3 results are representative of 3 independent experiments. CCR9 and α4β7 results are representative of multiple experiments.
It is important to determine which of the RAR (RARα, RARβ, RARγ) signaling pathways is important in the induction of Foxp3 expression. To determine this, naive CD4^+ CD25^− FoxP3^− cells were purified from a Foxp3-GFP mouse using flow cytometry by sorting and isolating based upon a GFP^− phenotype. These cells were activated polyclonally with αCD3 in vitro in the presence of IL-2 and TGF-β. To identify the RAR involved in RA-induced, the cultured cells were incubated with RAR selective agonists. The cultured cells were then score for the frequency of GFP+ (Foxp3+). With respect to the use of selective agonists, only the RARα agonist exerted significant impact on the expression of Foxp3 inducing nearly 100% Foxp3+ T cells, with enhancement on the expression of α4β7 and CCR9 (gut homing receptors) (FIG. 1). The RARγ and RARβ agonists were without effect.
(§1) To determine whether a RARα selective agonist could affect T cell differentiation, T cells were incubated with a RARα selective agonist to determine its effect on Foxp3 expression evaluated. Naive CD4^+ CD25^− FoxP3^− cells were purified from a Foxp3-GFP mouse using flow cytometry by sorting and isolating based upon a GFP^− phenotype. These cells were activated polyclonally with αCD3 in vitro in the presence of IL-2 and TGF-β. These cells were then cultured in media with various concentrations of compound 5183 (a RARα selective agonist) and the expression of FoxP3-GFP was analyzed by flow cytometry. The RARα selective agonist compound 5183 enhanced differentiation of immunosuppressive Treg cells and inhibited differentiation of inflammatory TH17 cells from Naïve T cells in vitro (Table 2).
On the technique in general: A flow cytometer gives signals particle by particle.

The next assay deals with Naïve T cells. Briefly: Th17 cell differentiation from Naïve T cells in vitro. The class given is cell-based, mouse. As for the experimental part: as §1
The next assay has as its system CD4+ T cells. Briefly: in vivo FoxP3 expression in CD4+ T cells of blood and spleen. Set-up: species or system mouse. The note with it: mice, 100 μg every other day for 10 days. As for the experimental part:
To expand on the finding above, the in vivo effects of a RARα selective agonist on T cell differentiation was evaluated in a mouse model. Mice were treated 100 μg of compound 5183 (a RARα agonist) or an equivalent volume of DMSO (vehicle control) every other day for 10 days. Lymphocytes from the blood and spleen were then isolated and FoxP3 expression in CD4^+ T cells was assessed.

In assay [2] the test system is experimental autoimmune encephalomyelitis (EAE). The assay is described as follows: experimental autoimmune encephalomyelitis (EAE) mouse model. In kind it is in vivo, SJL mice. The method, then:
To determine if RARα selective agonists reduce symptoms associated with an autoimmune disorder, the effects of a RARα selective agonist was evaluated in an experimental autoimmune encephalomyelitis (EAE) mouse model. EAE is an inflammatory disease of the central nervous system widely used as a model of multiple sclerosis in which Th17 cells are the principle mediators of the symptoms observed. […] In one set of experiments, the effects of prophylactic dosing were assessed. Mice were administered 1 mg/kg of compound 5183 intraperitoneally every other day starting day 1 after EAE induction. In a second set of experiments, the effects of therapeutic dosing were assessed. Mice were administered 2 mg/kg of compound 5183 intraperitoneally every other day starting day 7 after EAE induction. Clinical parameters of disease (loss of bodyweight and paralysis/paresis) were monitored on a daily basis.

Turning to `CC1(C)CCC(C)(C)c2c1cc(C(=O)Nc1cc(F)c(C(=O)O)c(F)c1)c(O)c2Cl` [Compound 5183], the Kd at RARα was 4.7 nM; at RARβ, more than 10 µM; on RARγ, more than 10 µM. Moreover, the “activation of transcription from RARα, RARβ, and RARγ” value with RARα, RARβ, and RARγ is listed as “specifically activates RARα”. Besides, the “Treg cell Percent Differentiation (%)” value in assay [1] (0.1 nM) was 26%; in assay [1] (1 nM), 55%; in assay [1] (10 nM), 90%. Moreover, the “Th17 cell Percent Differentiation (%)” value is 32% with Naïve T cells (0.1 nM), 21% with Naïve T cells (1 nM), 11% with Naïve T cells (10 nM) and 5% in the assay on Naïve T cells (100 nM). Besides, the “Foxp3+ Expression (%)” value with CD4+ T cells (Blood) amounted to 4.3%; in the assay on CD4+ T cells (Spleen), 25%. Besides, the “symptoms associated with EAE (loss of bodyweight and paralysis/paresis)” value in assay [2] (prophylactic dosing: 1 mg/kg intraperitoneally every other day starting day 1 after EAE induction) and in assay [2] (therapeutic dosing: 2 mg/kg intraperitoneally every other day starting day 7 after EAE induction) was “reduced symptoms associated with EAE” each time.
